14 compounds from US11773108B2, “Indene derivatives useful in treating pain and inflammation” (TARO PHARMACEUTICALS INC., priority 2018, dated 2023) can be followed below.

Like-named read-outs stand apart in the source and are kept apart here. Some results are limits rather than exact numbers.

Series [1] concerns rat dorsal root ganglion (DRG) cells. Briefly: Rat dorsal root ganglion (DRG) excitability response to electrical field stimulation. The format is cell-based. Particulars: adult rat DRG cells. The procedure: Rat Dorsal Root Ganglion Excitability Response of Representative Compounds Dorsal root ganglions (DRGs) were dissected from adult rats. The tissue was processed, and cells were seeded into cell culture plates (48 center wells of one quadrant in 384-well plates) and cultured for 2 days prior to Electrical field stimulation (EFS). To visualize the neuronal excitability response, intracellular Ca^+2 transients were monitored using the Ca^+2 indicator, Ca5. Ca5 was added to the cultures 1 h prior to EFS. Representative compounds of the invention (i.e., test compounds) and reference compound, tetracaine, were added in concentration-response format encompassing six concentrations, performed in duplicate. The highest concentration tested was typically 30 μM with 1 in 3 dilutions generating the subsequent concentrations.
Effects on DRG excitability by the test compounds and standard were evaluated using four EFS protocols as disclosed in Table 2.
Experimental results were performed using two seperate sets of plates using separate test compound and standard dilutions, to provide n=2. In the first set of experiments, compounds were added 24 h prior to EFS to increase the possibility to also detect more long-term compound effects. In the second set of experiments the compounds were added directly prior to EFS. Excitability response to EFS was analyzed as the average fluorescence ratio (peak/baseline) change per well. All plates were evaluated using high content imaging equipment post-EFS, imaging the Ca5 background staining to detect any possibile compound-related toxic effects.
Average response by the reference compound, tetracaine, was 4.05 μM.

Series [2] is described as follows: Metabolism by human liver microsomes. The format is in vitro ADME. The conditions noted are these: human liver microsomes 1 mg/mL protein, 10 μM, in the presence of NADPH, LC-MS/MS. The procedure:
Representative compounds of the invention (i.e., test compounds) and the positive control, 7-ethoxycoumarin, were prepared as stock solutions at 10 mM in DMSO and eventually diluted to 10 μM in the test plate, with an appropriate amount of acetonitrile and tris HCl buffer. Final DMSO and acetonitrile concentrations were […] and 0.5% respectively. NADPH was prepared in tris HCl buffer to a stock of 10 mM. A frozen aliquot of liver microsomes was retrieved from the freezer (−80° C.) and thawed by placing the tube on wet ice. After thawing, the tubes were gently mixed and the required amount, transferred to tris HCl buffer. Test compounds or positive control were pre-incubated, separately, for 10 minutes, with liver microsomes (1 mg/mL protein), at 37° C., in 100 mM Tris HCl at pH 7.5. After preincubation the reaction was started by adding 1 mM NADPH (pre-equilibrated to 30° C.) and the reaction allowed to proceed for 60 minutes. At 60 minutes, a 50 μL aliquot was removed and quenched with 200 uL of acetonitrile containing a mixture of internal standards (Tolbutamide (500 ng/mL) and Telmistartan (500 ng/mL)) and vortexed then centrifuged at 4000 rpm for 10 minutes (Eppendorf 5810R). The supernatant was transferred to a 96 well plate for LC-MS/MS analysis.
An LC-MS/MS method was devised for the test compounds and the control, using a AB Sciex API 4000 system coupled to a NEXAR™ UHPLC (Shimadzu) system. Analytes were separated on a Phenomenex Kinetex C18 column (50×2.1 mm, 5 μm) using a gradient that was appropriate for each compound, at a flow rate of 1 ml/minute, utilizing a mobile phase of 0.1% formic acid in MILLI-Q™ water (A) and 0.1% formic acid in acetonitrile (B). The MS instrument was operated in positive mode (ESI+)/negative (ESI−). The multiple reaction monitoring (MRM) transition for test and control compounds was used for the LC-MS/MS analysis. MRM transitions for control compound 7-ethoxycoumarinm were Quadropole 1: 191.0, Quadropole 3:163.0, dwell time: 75 msec, using curtain gas settings of 5 V, ion-spray voltage of 5500 V, temperature of 50° C. and gas settings for nebulizer and auxiliary set to 30 and 40 psi, respectively. The interface heater was kept on. Entrance potential and collision cell exit potential were varied to tune for a specific compound.
Using a suitable LC-MS/MS method, the percentage of drug remaining at 60 minutes ([…]) was assessed by comparing the average analyte to internal standard area ratio at 60 minutes to the average analyte to internal standard area ratio at 0 time control, as a percentage, from a 5 to 10 μL sample injection.
According to the above assay, the test compounds listed in Table 7 below were active in the Human liver microsome assay at 10 μM and the % of drug remaining after 60 minutes (PDR60), in the presence of NADPH, was assessed by LC-MS/MS. Average PDR60 for the standard compound, 7-ethoxycoumarin was <=65% in the presence of NADPH. Scoring for the test compounds, in the presence of NADPH, was as follows: “A” represents a PDR60 of 81 to 100%, “B” represents a PDR60 of 61 to 80%, “C” represents a PDR60 of 31 to 60% and “D” represents a PDR60 of 0 to 30%.

Setting [3] is: Ca5 Ca2+ indicator, six concentrations, highest typically 30 μM, read-out: Scoring: EC50, modulation of rat DRG excitability.

In the case of `C=C1CC[C@H]2[C@H](CN)[C@@H]([C@@]3(C)Cc4cnn(-c5ccc(F)cc5)c4C[C@@H]3CO)CC[C@]12C` [Ia-12, ((5R,6S)-5-((3aS,4R,5S,7aS)-4-(aminomethyl)-7a-methyl-1-methyleneoctahydro-1H-inden-5-yl)-1-(4-fluorophenyl)-5-methyl-4,5,6,7-tetrahydro-1H-indazol-6-yl)methanol], the EC50 in series [1] (setting [3]) was below 2 µM. In addition, in series [2], the “Scoring: % of drug remaining after 60 minutes (PDR60)” value (“Scoring: % of drug remaining” below) is given as “D (“D” represents a PDR60 of 0 to 30%)”. On the same counts, the results for `C=C1CC[C@H]2[C@H](CN)[C@@H]([C@@]3(C)Cc4cn(-c5ccc(OC)cc5)nc4C[C@@H]3CO)CC[C@]12C` [Ia-15, ((5R,6S)-5-((3aS,4R,5S,7aS)-4-(aminomethyl)-7a-methyl-1-methyleneoctahydro-1H-inden-5-yl)-2-(4-methoxyphenyl)-5-methyl-4,5,6,7-tetrahydro-2H-indazol-6-yl)methanol] are 6 to 15 µM and “B (“B” represents a PDR60 of 61 to 80%)”. Turning to `C=C1CC[C@H]2[C@H](CN)[C@@H]([C@@]3(C)Cc4cnn(Cc5ccc(F)cc5)c4C[C@@H]3CO)CC[C@]12C` [Ia-18, ((5R,6S)-5-((3aS,4R,5S,7aS)-4-(aminomethyl)-7a-methyl-1-methyleneoctahydro-1H-inden-5-yl)-1-(4-fluorobenzyl)-5-methyl-4,5,6,7-tetrahydro-1H-indazol-6-yl)methanol], the EC50 in series [1] (setting [3]) is below 2 µM. In the case of `C=C1CC[C@H]2[C@H](CN)[C@@H]([C@@]3(C)Cc4cnn(-c5ccc(C(=O)c6ccccc6)cc5)c4C[C@@H]3CO)CC[C@]12C` [Ia-20, (4-((5R,6S)-5-((3aS,4R,5S,7aS)-4-(aminomethyl)-7a-methyl-1-methyleneoctahydro-1H-inden-5-yl)-6-(hydroxymethyl)-5-methyl-4,5,6,7-tetrahydro-1H-indazol-1-yl)phenyl)(phenyl)methanone], the EC50 in series [1] (setting [3]) is below 2 µM. Also, the “Scoring: % of drug remaining” value in series [2] is on record as “B (“B” represents a PDR60 of 61 to 80%)”.

For the compound `C=C1CC[C@H]2[C@H](CN)[C@@H]([C@@]3(C)Cc4cnn(-c5ccc(F)c(F)c5)c4C[C@@H]3CO)CC[C@]12C` [Ia-22, ((5R,6S)-5-((3aS,4R,5S,7aS)-4-(aminomethyl)-7a-methyl-1-methyleneoctahydro-1H-inden-5-yl)-1-(3,4-difluorophenyl)-5-methyl-4,5,6,7-tetrahydro-1H-indazol-6-yl)methanol], in series [1] (setting [3]), the EC50 was below 2 µM. Moreover, the “Scoring: % of drug remaining” value in series [2] is “D (“D” represents a PDR60 of 0 to 30%)”. On the same counts, the results for `C=C1CC[C@H]2[C@H](CN)[C@@H]([C@@]3(C)Cc4cnn(-c5ccc(Oc6ccc(F)cc6)cc5)c4C[C@@H]3CO)CC[C@]12C` [Ia-24, ((5R,6S)-5-((3aS,4R,5S,7aS)-4-(aminomethyl)-7a-methyl-1-methyleneoctahydro-1H-inden-5-yl)-1-(4-(4-fluorophenoxy)phenyl)-5-methyl-4,5,6,7-tetrahydro-1H-indazol-6-yl)methanol] are below 2 µM and “B (“B” represents a PDR60 of 61 to 80%)”. On the same counts, the results for `C=C1CC[C@H]2[C@H](CN)[C@@H]([C@@]3(C)Cc4cnn(-c5ncc(F)cn5)c4C[C@@H]3CO)CC[C@]12C` [Ia-26, ((5R,6S)-5-((3aS,4R,5S,7aS)-4-(aminomethyl)-7a-methyl-1-methyleneoctahydro-1H-inden-5-yl)-1-(5-fluoropyrimidin-2-yl)-5-methyl-4,5,6,7-tetrahydro-1H-indazol-6-yl)methanol] are 6 to 15 µM and “D (“D” represents a PDR60 of 0 to 30%)”. On the same counts, the results for `C=C1CC[C@H]2[C@H](CN)[C@@H]([C@@]3(C)Cc4cn(-c5ncc(F)cn5)nc4C[C@@H]3CO)CC[C@]12C` [Ia-27, ((5R,6S)-5-((3aS,4R,5S,7aS)-4-(aminomethyl)-7a-methyl-1-methyleneoctahydro-1H-inden-5-yl)-2-(5-fluoropyrimidin-2-yl)-5-methyl-4,5,6,7-tetrahydro-2H-indazol-6-yl)methanol] are 6 to 15 µM and “C (“C” represents a PDR60 of 31 to 60%)”. Consider `C=C1CC[C@H]2[C@H](CN)[C@@H]([C@@]3(C)Cc4cnn(-c5ccc(Oc6ccccc6)cc5)c4C[C@@H]3CO)CC[C@]12C` [Ia-28, ((5R,6S)-5-((3aS,4R,5S,7aS)-4-(aminomethyl)-7a-methyl-1-methyleneoctahydro-1H-inden-5-yl)-5-methyl-1-(4-phenoxyphenyl)-4,5,6,7-tetrahydro-1H-indazol-6-yl)methanol], for which the EC50 in series [1] (setting [3]) was below 2 µM. In series [2], the “Scoring: % of drug remaining” value is given as “B (“B” represents a PDR60 of 61 to 80%)”. On the same counts, the results for `C=C1CC[C@H]2[C@H](CN)[C@@H]([C@@]3(C)Cc4cn(-c5ccc(Oc6ccccc6)cc5)nc4C[C@@H]3CO)CC[C@]12C` [Ia-29, ((5R,6S)-5-((3aS,4R,5S,7aS)-4-(aminomethyl)-7a-methyl-1-methyleneoctahydro-1H-inden-5-yl)-5-methyl-2-(4-phenoxyphenyl)-4,5,6,7-tetrahydro-2H-indazol-6-yl)methanol] are below 2 µM and “C (“C” represents a PDR60 of 31 to 60%)”.

On to `C=C1CC[C@H]2[C@H](CN)[C@@H]([C@@]3(C)Cc4cnn(-c5ccc(Oc6ccc(C(=O)O)cc6)cc5)c4C[C@@H]3CO)CC[C@]12C` [Ia-36, 4-(4-((5R,6S)-5-((3aS,4R,5S,7aS)-4-(aminomethyl)-7a-methyl-1-methyleneoctahydro-1H-inden-5-yl)-6-(hydroxymethyl)-5-methyl-4,5,6,7-tetrahydro-1H-indazol-1-yl)phenoxy)benzoic acid], for which, in series [1] (setting [3]), the EC50 is above 15 µM. In addition, the “Scoring: % of drug remaining” value in series [2] is “A (“A” represents a PDR60 of 81 to 100%)”. In the case of `C[C@H]1CC[C@H]2[C@H](CN)[C@@H]([C@@]3(C)Cc4cnn(-c5ccc(F)cc5)c4C[C@@H]3CO)CC[C@]12C` [Ia-47, ((5R,6S)-5-((1S,3aS,4S,5S,7aR)-4-(aminomethyl)-1,7a-dimethyloctahydro-1H-inden-5-yl)-1-(4-fluorophenyl)-5-methyl-4,5,6,7-tetrahydro-1H-indazol-6-yl)methanol], the EC50 in series [1] (setting [3]) was below 2 µM.

For `COc1ccc(Cn2cc3c(n2)C[C@H](CO)[C@@](C)([C@H]2CC[C@]4(C)[C@@H](C)CC[C@H]4[C@@H]2CN)C3)cc1` [Ia-52, ((5R,6S)-5-((1S,3aS,4S,5S,7aR)-4-(aminomethyl)-1,7a-dimethyloctahydro-1H-inden-5-yl)-2-(4-methoxybenzyl)-5-methyl-4,5,6,7-tetrahydro-2H-indazol-6-yl)methanol], in series [1] (setting [3]), the EC50 is below 2 µM. Moreover, in series [2], the “Scoring: % of drug remaining” value is “A (“A” represents a PDR60 of 81 to 100%)”. For the compound `CCCCNc1ccc(C(=O)OCCN(C)C)cc1` [tetracaine, reference compound], the EC50 in series [1] (reference compound, read-out: Average response (rat DRG excitability)) was 4.05 µM.
